Assay results as given in ChEMBL document CHEMBL5360658, “Discovery of MK-8768, a Potent and Selective mGluR2 Negative Allosteric Modulator” (ACS Med Chem Lett, 2023).
Converted amounts (≈) assume the structure as drawn.

What was measured:
Cytochrome P450 3A4 = Cytochrome P450 3A4 (Homo sapiens, UniProt P08684); experiment: […] of CYP3A4 (unknown origin); format: ADME
[1] = target: Metabotropic glutamate receptor 6 (Homo sapiens, UniProt O15303); experiment: Negative allosteric modulation at mGluR6 receptor (unknown origin) assessed as effect on intracellular calcium flux measured after 5 min by Fluo-4AM dye based FLIPR analysis; format: functional, cell-based
[2] = Effective half life in monkey at 0.5 mg/kg, iv; format: ADME, organism-based, Macaca mulatta; conditions: rhesus monkey, in vivo, read-out: t1/2eff (converted)
[3] = Fraction unbound in monkey plasma; format: ADME, cell-free, Macaca mulatta; conditions: rhesus monkey
[4] = Clearance in monkey at 0.5 mg/kg, iv; format: ADME, organism-based, Macaca mulatta; conditions: rhesus monkey, in vivo
[5] = Oral bioavailability in dog at 0.5 mg/kg; format: ADME, organism-based, Canis lupus familiaris; conditions: in vivo
Cytochrome P450 2C8 = target: T1, Cytochrome P450 2C8 (Homo sapiens, UniProt P10632); experiment: […] of CYP2C8 (unknown origin); format: ADME
T1 sequence (P10632 whole entry): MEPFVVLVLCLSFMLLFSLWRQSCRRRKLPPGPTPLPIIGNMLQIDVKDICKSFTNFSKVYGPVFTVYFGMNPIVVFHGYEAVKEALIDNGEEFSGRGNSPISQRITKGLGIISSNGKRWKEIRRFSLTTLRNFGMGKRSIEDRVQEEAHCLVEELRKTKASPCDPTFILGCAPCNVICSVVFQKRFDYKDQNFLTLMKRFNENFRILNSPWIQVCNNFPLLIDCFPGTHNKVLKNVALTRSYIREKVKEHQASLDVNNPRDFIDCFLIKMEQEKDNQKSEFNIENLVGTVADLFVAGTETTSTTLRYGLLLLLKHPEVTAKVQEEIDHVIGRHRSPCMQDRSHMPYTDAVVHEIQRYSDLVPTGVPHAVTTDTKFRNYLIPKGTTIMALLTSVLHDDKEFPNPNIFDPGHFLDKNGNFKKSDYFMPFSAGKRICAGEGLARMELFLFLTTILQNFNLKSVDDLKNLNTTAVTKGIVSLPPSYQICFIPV

[6] = Unbound plasma concentration in rhesus monkey at 0.01 to 1 mg/kg, IM; format: ADME, organism-based, Macaca mulatta; conditions: in vivo, dose 0.01-1 mg/kg
[7] = Fraction unbound in human plasma; format: ADME, cell-free
[8] = Fraction unbound in rat plasma; format: ADME, cell-free
Cytochrome P450 1A2 = target: T2, Cytochrome P450 1A2 (Homo sapiens, UniProt P05177); experiment: […] of CYP1A2 (unknown origin); format: ADME
T2 sequence (P05177 whole entry): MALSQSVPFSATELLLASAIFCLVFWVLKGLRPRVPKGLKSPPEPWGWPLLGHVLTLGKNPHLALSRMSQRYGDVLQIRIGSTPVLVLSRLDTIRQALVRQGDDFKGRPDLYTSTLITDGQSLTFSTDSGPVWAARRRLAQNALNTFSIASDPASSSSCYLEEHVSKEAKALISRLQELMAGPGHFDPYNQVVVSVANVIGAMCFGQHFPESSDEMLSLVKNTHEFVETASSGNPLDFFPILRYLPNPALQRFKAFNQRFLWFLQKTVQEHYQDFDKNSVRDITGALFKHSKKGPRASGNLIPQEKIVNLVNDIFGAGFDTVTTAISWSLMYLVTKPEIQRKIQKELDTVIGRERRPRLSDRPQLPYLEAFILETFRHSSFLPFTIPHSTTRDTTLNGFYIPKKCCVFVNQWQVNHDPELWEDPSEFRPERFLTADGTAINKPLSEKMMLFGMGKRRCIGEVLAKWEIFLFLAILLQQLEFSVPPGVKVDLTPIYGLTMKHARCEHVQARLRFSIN

[9] = target: Metabotropic glutamate receptor 8 (Homo sapiens, UniProt O00222); experiment: Negative allosteric modulation at mGluR8 receptor (unknown origin) assessed as effect on intracellular calcium flux measured after 5 min by Fluo-4AM dye based FLIPR analysis; format: functional, cell-based
[10] = Solubility of the compound in FaSSIF; format: physicochemical
[11] = Volume of distribution in monkey at 0.5 mg/kg, iv; format: ADME, organism-based, Macaca mulatta; conditions: rhesus monkey, in vivo
[12] = Effective half life in rat at 1 mg/kg, iv; format: ADME, organism-based; conditions: in vivo, read-out: t1/2eff (converted)
[13] = Volume of distribution in dog at 0.25 mg/kg, iv; format: ADME, organism-based, Canis lupus familiaris; conditions: in vivo
[14] = Oral bioavailability in rat at 2 mg/kg; format: ADME, organism-based; conditions: in vivo
[15] = Solubility of the compound in SGF buffer; format: physicochemical
[16] = target: Metabotropic glutamate receptor 1 (Homo sapiens, UniProt Q13255); experiment: Negative allosteric modulation at mGluR1 receptor (unknown origin) assessed as effect on intracellular calcium flux measured after 5 min by Fluo-4AM dye based FLIPR analysis; format: functional, cell-based
[17] = Effective half life in dog at 0.25 mg/kg, iv; format: ADME, organism-based, Canis lupus familiaris; conditions: in vivo, read-out: t1/2eff (converted)
[18] = Solubility of the compound in FeSSIF; format: physicochemical
[19] = Apparent permeability in […] LLC-MDR1 cell; format: ADME, cell-based; conditions: LLC-PK1
[20] = Fraction unbound in dog plasma; format: ADME, cell-free, Canis lupus familiaris
[21] = Mutagenicity in Salmonella typhimurium in presence of S9 fraction by Ames test; format: toxicity, subcellular; conditions: salmonella enterica subsp. enterica serovar typhimurium
[22] = Volume of distribution in rat at 1 mg/kg, iv; format: ADME, organism-based; conditions: in vivo
Cytochrome P450 2C19 = Cytochrome P450 2C19 (Homo sapiens, UniProt P33261); experiment: […] of CYP2C19 (unknown origin); format: ADME
Cytochrome P450 2C9 = Cytochrome P450 2C9 (Homo sapiens, UniProt P11712); experiment: […] of CYP2C9 (unknown origin); format: ADME
[23] = target: Metabotropic glutamate receptor 4 (Homo sapiens, UniProt Q14833); experiment: Negative allosteric modulation at mGluR4 receptor (unknown origin) assessed as effect on intracellular calcium flux measured after 5 min by Fluo-4AM dye based FLIPR analysis; format: functional, cell-based
[24] = target: Voltage-gated inwardly rectifying potassium channel KCNH2 (Homo sapiens, UniProt Q12809); experiment: Displacement of [35S]-MK-499 from hERG expressed in HEK293 cells […]; format: toxicity, cell-based
[25] = Clearance in dog at 0.25 mg/kg, iv; format: ADME, organism-based, Canis lupus familiaris; conditions: in vivo
Cytochrome P450 2D6 = Cytochrome P450 2D6 (Homo sapiens, UniProt P10635); experiment: […] of CYP2D6 (unknown origin); format: ADME
[26] = Clearance in rat at 1 mg/kg, iv; format: ADME, organism-based; conditions: in vivo
Cytochrome P450 2B6 = target: T3, Cytochrome P450 2B6 (Homo sapiens, UniProt P20813); experiment: […] of CYP2B6 (unknown origin); format: ADME
T3 sequence (P20813 whole entry): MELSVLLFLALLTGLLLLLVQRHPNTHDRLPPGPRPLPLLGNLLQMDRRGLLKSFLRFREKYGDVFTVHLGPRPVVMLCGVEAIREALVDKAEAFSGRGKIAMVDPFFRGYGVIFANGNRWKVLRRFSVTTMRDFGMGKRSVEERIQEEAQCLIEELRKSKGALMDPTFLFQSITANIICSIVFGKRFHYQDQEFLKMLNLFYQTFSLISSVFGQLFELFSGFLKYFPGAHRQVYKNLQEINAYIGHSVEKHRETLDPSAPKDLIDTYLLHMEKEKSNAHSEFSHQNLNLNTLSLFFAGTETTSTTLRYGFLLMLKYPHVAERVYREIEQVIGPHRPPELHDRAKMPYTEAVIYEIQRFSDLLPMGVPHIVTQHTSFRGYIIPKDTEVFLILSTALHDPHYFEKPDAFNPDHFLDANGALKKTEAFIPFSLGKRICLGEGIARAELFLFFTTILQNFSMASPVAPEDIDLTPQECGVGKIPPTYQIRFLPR

Chain of Metabotropic glutamate receptor 8 (O00222 whole entry): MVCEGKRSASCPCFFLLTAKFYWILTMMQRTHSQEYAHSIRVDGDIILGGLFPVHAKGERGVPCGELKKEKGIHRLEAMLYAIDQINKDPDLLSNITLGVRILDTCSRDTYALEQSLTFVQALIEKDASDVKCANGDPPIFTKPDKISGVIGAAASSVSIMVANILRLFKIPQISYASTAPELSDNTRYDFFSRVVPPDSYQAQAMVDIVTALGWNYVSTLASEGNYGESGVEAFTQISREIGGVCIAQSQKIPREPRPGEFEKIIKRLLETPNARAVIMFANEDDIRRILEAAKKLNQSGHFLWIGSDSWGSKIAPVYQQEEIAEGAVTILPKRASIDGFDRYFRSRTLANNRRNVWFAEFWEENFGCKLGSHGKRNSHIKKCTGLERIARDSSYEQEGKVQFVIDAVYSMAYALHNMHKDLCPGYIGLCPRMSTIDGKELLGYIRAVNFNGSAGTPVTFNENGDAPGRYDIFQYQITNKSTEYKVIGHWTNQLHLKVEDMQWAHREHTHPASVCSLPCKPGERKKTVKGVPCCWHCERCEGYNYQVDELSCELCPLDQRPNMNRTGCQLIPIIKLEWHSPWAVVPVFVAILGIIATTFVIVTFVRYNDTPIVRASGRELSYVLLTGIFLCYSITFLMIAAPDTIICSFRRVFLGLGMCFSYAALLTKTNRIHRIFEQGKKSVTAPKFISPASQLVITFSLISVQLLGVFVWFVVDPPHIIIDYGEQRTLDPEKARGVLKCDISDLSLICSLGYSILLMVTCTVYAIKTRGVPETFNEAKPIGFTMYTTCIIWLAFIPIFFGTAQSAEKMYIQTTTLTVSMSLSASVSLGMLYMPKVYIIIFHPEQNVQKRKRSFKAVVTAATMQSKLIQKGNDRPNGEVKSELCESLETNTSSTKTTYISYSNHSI
Chain of Metabotropic glutamate receptor 1 (Q13255 whole entry): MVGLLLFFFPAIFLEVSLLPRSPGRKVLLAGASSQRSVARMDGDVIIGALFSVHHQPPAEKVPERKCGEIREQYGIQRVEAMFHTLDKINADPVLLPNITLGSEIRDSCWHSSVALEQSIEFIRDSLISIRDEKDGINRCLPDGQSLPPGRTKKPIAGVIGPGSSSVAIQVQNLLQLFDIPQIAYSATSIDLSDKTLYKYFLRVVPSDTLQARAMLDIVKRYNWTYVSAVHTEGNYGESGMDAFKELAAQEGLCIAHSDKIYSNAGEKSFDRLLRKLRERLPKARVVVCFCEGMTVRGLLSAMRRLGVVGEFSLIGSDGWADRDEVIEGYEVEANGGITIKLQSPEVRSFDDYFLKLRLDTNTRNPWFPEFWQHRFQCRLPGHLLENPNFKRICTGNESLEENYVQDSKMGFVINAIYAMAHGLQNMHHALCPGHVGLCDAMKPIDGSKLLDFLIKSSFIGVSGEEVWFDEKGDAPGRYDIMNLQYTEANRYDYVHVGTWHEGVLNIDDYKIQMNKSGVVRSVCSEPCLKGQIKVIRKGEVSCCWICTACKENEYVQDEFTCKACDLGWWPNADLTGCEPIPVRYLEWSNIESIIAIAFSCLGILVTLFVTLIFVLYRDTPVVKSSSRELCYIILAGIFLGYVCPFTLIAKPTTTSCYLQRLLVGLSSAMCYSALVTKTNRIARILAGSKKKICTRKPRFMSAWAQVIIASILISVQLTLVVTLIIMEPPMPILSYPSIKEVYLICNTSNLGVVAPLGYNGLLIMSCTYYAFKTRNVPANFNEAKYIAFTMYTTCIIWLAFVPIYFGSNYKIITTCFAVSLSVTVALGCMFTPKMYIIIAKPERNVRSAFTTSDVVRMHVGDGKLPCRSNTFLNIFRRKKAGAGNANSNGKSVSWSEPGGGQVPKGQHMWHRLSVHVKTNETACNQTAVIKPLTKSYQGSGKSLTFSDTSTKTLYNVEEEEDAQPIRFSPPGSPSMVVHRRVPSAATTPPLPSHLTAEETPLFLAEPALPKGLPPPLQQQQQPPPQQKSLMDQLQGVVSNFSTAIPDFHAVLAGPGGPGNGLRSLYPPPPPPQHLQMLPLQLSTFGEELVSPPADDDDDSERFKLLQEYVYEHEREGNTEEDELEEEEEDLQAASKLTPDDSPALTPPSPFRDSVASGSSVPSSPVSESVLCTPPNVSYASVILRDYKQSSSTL
Chain of Cytochrome P450 2C19 (P33261 whole entry): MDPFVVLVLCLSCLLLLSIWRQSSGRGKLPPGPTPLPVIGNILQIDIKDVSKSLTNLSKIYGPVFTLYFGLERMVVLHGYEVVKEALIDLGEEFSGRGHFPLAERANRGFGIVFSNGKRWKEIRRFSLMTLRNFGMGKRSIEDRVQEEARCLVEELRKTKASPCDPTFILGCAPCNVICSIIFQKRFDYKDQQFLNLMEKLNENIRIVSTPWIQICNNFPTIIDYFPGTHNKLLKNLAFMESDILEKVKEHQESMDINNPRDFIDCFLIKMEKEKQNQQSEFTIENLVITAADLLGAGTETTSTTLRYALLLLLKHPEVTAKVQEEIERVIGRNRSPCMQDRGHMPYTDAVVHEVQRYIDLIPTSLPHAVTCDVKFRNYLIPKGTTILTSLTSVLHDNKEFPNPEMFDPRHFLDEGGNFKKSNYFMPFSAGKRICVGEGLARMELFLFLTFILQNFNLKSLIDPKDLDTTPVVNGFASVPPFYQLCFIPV
Chain of Metabotropic glutamate receptor 6 (O15303 whole entry): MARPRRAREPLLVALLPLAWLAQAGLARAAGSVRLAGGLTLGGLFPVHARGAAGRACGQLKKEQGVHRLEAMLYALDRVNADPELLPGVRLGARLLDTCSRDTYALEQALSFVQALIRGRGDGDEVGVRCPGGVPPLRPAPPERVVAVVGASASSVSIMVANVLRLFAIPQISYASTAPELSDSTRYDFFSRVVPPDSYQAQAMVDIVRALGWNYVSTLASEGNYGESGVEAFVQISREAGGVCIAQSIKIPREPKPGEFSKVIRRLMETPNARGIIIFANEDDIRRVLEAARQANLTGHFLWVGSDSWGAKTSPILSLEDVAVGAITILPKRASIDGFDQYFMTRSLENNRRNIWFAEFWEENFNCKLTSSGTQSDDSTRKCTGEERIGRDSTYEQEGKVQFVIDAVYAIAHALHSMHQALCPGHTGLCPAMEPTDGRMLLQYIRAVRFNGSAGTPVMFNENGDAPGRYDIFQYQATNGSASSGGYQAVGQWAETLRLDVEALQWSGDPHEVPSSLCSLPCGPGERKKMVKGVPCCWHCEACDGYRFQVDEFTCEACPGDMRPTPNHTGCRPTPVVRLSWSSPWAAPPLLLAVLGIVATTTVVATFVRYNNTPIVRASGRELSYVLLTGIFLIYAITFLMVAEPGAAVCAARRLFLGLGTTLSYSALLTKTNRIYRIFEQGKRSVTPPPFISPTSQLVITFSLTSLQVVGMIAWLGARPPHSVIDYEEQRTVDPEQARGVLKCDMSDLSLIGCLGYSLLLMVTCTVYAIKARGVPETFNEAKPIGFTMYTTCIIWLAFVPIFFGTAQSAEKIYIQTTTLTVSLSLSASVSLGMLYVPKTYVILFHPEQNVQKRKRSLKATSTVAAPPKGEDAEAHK
Chain of Cytochrome P450 2C9 (P11712 whole entry): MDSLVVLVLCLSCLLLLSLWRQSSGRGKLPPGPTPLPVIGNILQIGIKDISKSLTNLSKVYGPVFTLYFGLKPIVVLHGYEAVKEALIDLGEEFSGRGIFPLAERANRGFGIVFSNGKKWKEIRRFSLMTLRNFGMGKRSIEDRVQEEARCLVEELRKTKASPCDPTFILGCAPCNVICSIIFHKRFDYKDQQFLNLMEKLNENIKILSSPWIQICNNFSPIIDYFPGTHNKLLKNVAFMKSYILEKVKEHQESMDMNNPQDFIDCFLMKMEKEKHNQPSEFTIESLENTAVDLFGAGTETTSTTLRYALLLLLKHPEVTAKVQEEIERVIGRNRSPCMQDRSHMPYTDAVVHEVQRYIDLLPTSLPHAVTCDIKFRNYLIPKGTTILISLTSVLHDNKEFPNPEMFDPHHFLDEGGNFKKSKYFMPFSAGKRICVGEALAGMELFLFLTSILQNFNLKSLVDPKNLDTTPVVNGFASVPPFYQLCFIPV
Chain of Metabotropic glutamate receptor 4 (Q14833 whole entry): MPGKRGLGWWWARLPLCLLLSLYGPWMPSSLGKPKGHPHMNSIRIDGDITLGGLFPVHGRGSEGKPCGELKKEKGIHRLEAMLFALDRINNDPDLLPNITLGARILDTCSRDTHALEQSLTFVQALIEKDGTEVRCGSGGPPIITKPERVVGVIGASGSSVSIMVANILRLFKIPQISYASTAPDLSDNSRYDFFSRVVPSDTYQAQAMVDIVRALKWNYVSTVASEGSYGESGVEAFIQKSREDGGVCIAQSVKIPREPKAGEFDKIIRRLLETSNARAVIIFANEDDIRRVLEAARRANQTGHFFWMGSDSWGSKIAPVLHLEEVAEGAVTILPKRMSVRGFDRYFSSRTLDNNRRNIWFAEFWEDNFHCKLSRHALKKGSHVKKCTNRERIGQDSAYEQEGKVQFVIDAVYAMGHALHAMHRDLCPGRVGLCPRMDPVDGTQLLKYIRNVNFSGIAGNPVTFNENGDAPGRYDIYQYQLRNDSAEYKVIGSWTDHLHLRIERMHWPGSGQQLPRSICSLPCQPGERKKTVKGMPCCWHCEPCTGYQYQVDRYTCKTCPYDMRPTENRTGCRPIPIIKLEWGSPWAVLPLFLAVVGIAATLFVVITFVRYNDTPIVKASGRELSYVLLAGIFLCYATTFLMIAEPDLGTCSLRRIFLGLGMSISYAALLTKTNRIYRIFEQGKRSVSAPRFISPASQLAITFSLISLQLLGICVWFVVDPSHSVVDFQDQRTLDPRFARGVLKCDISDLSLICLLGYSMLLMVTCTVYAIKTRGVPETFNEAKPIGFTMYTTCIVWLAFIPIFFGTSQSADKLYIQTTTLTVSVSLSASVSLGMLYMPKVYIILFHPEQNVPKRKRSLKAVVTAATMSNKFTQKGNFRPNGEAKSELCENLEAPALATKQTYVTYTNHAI

C[C@@H]1CN(Cc2ccc3c(-c4cnn(C)c4)cc(C(N)=O)nc3c2)C[C@H](C(F)(F)F)O1
IC50 (Cytochrome P450 3A4): > 26 µM | IC50 [1]: > 10 µM | half-life [2]: 1.7 h | fraction unbound [3]: 0.043 | clearance [4]: 22 mL/min/kg | bioavailability [5]: 34% | IC50 (Cytochrome P450 2C8): > 26 µM | Cp(f) [6]: 3 nM | fraction unbound [7]: 0.025 | fraction unbound [8]: 0.04 | IC50 (Cytochrome P450 1A2): > 26 µM | IC50 [9]: > 10 µM | solubility [10]: 440 µg/mL (≈ 1.02 mM) | Vd [11]: 3.2 L/kg | half-life [12]: 1.8 h | Vd [13]: 7.3 L/kg | bioavailability [14]: 32% | solubility [15]: 4100 µg/mL (≈ 9.46 mM) | IC50 [16]: > 10 µM | half-life [17]: 3.3 h | solubility [18]: 2100 µg/mL (≈ 4.85 mM) | Papp [19]: 32 ×10⁻⁶ cm/s | fraction unbound [20]: 0.045 | Activity [21]: Non-Toxic | Vd [22]: 5.7 L/kg | IC50 (Cytochrome P450 2C19): > 26 µM | IC50 (Cytochrome P450 2C9): > 26 µM | IC50 [23]: > 10 µM | IC50 [24]: 22 µM | clearance [25]: 24 mL/min/kg | IC50 (Cytochrome P450 2D6): > 26 µM | clearance [26]: 36 mL/min/kg | IC50 (Cytochrome P450 2B6): > 26 µM
